Values after ≈ are worked out from the molar mass of the structure shown. Read-outs that look alike come from different tables or passages of the source.
Columns and labels:
physchem = conditions: 25 °C, thermodynamic from solid
[1] = Solubility in simulated intestinal fluids (FaSSIF/FeSSIF); conditions: 25 °C, thermodynamic from solid
[2] = 0.1N HCl, 1.0% DMSO, 24-hour incubation at ambient temperature, maximum theoretical 100 μM, first value of the cell
[3] = 1×PBS buffer (pH 7.4), 1.0% DMSO, 24-hour incubation at ambient temperature, maximum theoretical 100 μM, second value of the cell
[4] = fasted state simulated intestinal fluid (FaSSIF), fassif
[5] = fed state simulated intestinal fluid (FeSSIF), fessif

pH 2 solubility [2] [μM] | pH 7 solubility [3] [μM] | solubility [1, 4] [µg/mL] | solubility [1, 5] [µg/mL] | SMILES | solubility (physchem; fassif) [µg/mL] | solubility (physchem; fessif) [µg/mL] | pH 2 solubility (pH 2) | pH 7 solubility (pH 7.4)
 |  |  |  | CN(Cc1ccccc1OP(=O)(O)O)C(=O)N(c1nn(CC(F)(F)F)c2c(-c3ccc(C#CC(C)(C)S(C)(=O)=O)nc3[C@H](Cc3cc(F)cc(F)c3)NC(=O)Cn3nc(C(F)(F)F)c4c3C(F)(F)[C@@H]3C[C@H]43)ccc(Cl)c12)S(C)(=O)=O [Compound 67, 2-((3-(4-chloro-7-(2-((S)-1-(2-((3bS,4aR)-5,5-difluoro-3-(trifluoromethyl)-3b,4,4a,5-tetrahydro-1H-cyclopropa[3,4]cyclopenta[1,2-c]pyrazol-1-yl)acetamido)-2-(3,5-difluorophenyl)ethyl)-6-(3-methyl-3-(methylsulfonyl)but-1-yn-1-yl)pyridin-3-yl)-1-(2,2,2-trifluoroethyl)-1H-indazol-3-yl)-1-methyl-3-(methylsulfonyl)ureido)methyl)phenyl dihydrogen phosphate] | 536 | 707 | 2/79 μM | 2/79 μM
 |  |  |  | CN(CCN(C)C(=O)N(c1nn(CC(F)(F)F)c2c(-c3ccc(C#CC(C)(C)S(C)(=O)=O)nc3[C@H](Cc3cc(F)cc(F)c3)NC(=O)Cn3nc(C(F)(F)F)c4c3C(F)(F)[C@@H]3C[C@H]43)ccc(Cl)c12)S(C)(=O)=O)C(=O)OCOP(=O)(O)O [Compound 83, (phosphonooxy)methyl (2-(3-(4-chloro-7-(2-((S)-1-(2-((3bS,4aR)-5,5-difluoro-3-(trifluoromethyl)-3b,4,4a,5-tetrahydro-1H-cyclopropa[3,4]cyclopenta[1,2-c]pyrazol-1-yl)acetamido)-2-(3,5-difluorophenyl)ethyl)-6-(3-methyl-3-(methylsulfonyl)but-1-yn-1-yl)pyridin-3-yl)-1-(2,2,2-trifluoroethyl)-1H-indazol-3-yl)-1-methyl-3-(methylsulfonyl)ureido)ethyl)(methyl)carbamate] | 1950 (≈ 1580 µM) | 500 (≈ 404 µM) | 1/61 μM | 1/61 μM
1 | 16 | 7 (≈ 6.21 µM) | 162 (≈ 144 µM) | CC(C)(C#Cc1ccc(-c2ccc(Cl)c3c(N(C(=O)OCCNC(=O)C(=O)O)S(C)(=O)=O)nn(CC(F)(F)F)c23)c([C@H](Cc2cc(F)cc(F)c2)NC(=O)Cn2nc(C(F)(F)F)c3c2C(F)(F)[C@@H]2C[C@H]32)n1)S(C)(=O)=O [Compound 122, 2-((2-(((4-chloro-7-(2-((S)-1-(2-((3bS,4aR)-5,5-difluoro-3-(trifluoromethyl)-3b,4,4a,5-tetrahydro-1H-cyclopropa[3,4]cyclopenta[1,2-c]pyrazol-1-yl)acetamido)-2-(3,5-difluorophenyl)ethyl)-6-(3-methyl-3-(methylsulfonyl)but-1-yn-1-yl)pyridin-3-yl)-1-(2,2,2-trifluoroethyl)-1H-indazol-3-yl)(methylsulfonyl)carbamoyl)oxy)ethyl)amino)-2-oxoacetic acid] |  |  |  | 
78 | 71 | 120 (≈ 109 µM) | 153 (≈ 139 µM) | CC(C)(C#Cc1ccc(-c2ccc(Cl)c3c(N(C(=O)OCCNC(=N)N)S(C)(=O)=O)nn(CC(F)(F)F)c23)c([C@H](Cc2cc(F)cc(F)c2)NC(=O)Cn2nc(C(F)(F)F)c3c2C(F)(F)[C@@H]2C[C@H]32)n1)S(C)(=O)=O [Compound 123, 2-guanidinoethyl (4-chloro-7-(2-((S)-1-(2-((3bS,4aR)-5,5-difluoro-3-(trifluoromethyl)-3b,4,4a,5-tetrahydro-1H-cyclopropa[3,4]cyclopenta[1,2-c]pyrazol-1-yl)acetamido)-2-(3,5-difluorophenyl)ethyl)-6-(3-methyl-3-(methylsulfonyl)but-1-yn-1-yl)pyridin-3-yl)-1-(2,2,2-trifluoroethyl)-1H-indazol-3-yl)(methylsulfonyl)carbamate] |  |  |  | 
14 | 68 | 617 (≈ 540 µM) | 42 (≈ 36.8 µM) | CC(C)(C#Cc1ccc(-c2ccc(Cl)c3c(N(C(=O)OC(CC(=O)O)CC(=O)O)S(C)(=O)=O)nn(CC(F)(F)F)c23)c([C@H](Cc2cc(F)cc(F)c2)NC(=O)Cn2nc(C(F)(F)F)c3c2C(F)(F)[C@@H]2C[C@H]32)n1)S(C)(=O)=O [Compound 125, 3-(((4-chloro-7-(2-((S)-1-(2-((3bS,4aR)-5,5-difluoro-3-(trifluoromethyl)-3b,4,4a,5-tetrahydro-1H-cyclopropa[3,4]cyclopenta[1,2-c]pyrazol-1-yl)acetamido)-2-(3,5-difluorophenyl)ethyl)-6-(3-methyl-3-(methylsulfonyl)but-1-yn-1-yl)pyridin-3-yl)-1-(2,2,2-trifluoroethyl)-1H-indazol-3-yl)(methylsulfonyl)carbamoyl)oxy)pentanedioic acid] |  |  |  | 
1 | 5 | 21 (≈ 18.4 µM) | 218 (≈ 191 µM) | CC(C)(C#Cc1ccc(-c2ccc(Cl)c3c(N(C(=O)OCCC(C(=O)O)C(=O)O)S(C)(=O)=O)nn(CC(F)(F)F)c23)c([C@H](Cc2cc(F)cc(F)c2)NC(=O)Cn2nc(C(F)(F)F)c3c2C(F)(F)[C@@H]2C[C@H]32)n1)S(C)(=O)=O [Compound 126, 2-(2-(((4-chloro-7-(2-((S)-1-(2-((3bS,4aR)-5,5-difluoro-3-(trifluoromethyl)-3b,4,4a,5-tetrahydro-1H-cyclopropa[3,4]cyclopenta[1,2-c]pyrazol-1-yl)acetamido)-2-(3,5-difluorophenyl)ethyl)-6-(3-methyl-3-(methylsulfonyl)but-1-yn-1-yl)pyridin-3-yl)-1-(2,2,2-trifluoroethyl)-1H-indazol-3-yl)(methylsulfonyl)carbamoyl)oxy)ethyl)malonic acid] |  |  |  | 
1 | 73 | 816 (≈ 688 µM) | 427 (≈ 360 µM) | CC(C)(C#Cc1ccc(-c2ccc(Cl)c3c(N(C(=O)OC[C@H](CC(=O)O)NC(=O)C(=O)O)S(C)(=O)=O)nn(CC(F)(F)F)c23)c([C@H](Cc2cc(F)cc(F)c2)NC(=O)Cn2nc(C(F)(F)F)c3c2C(F)(F)[C@@H]2C[C@H]32)n1)S(C)(=O)=O [Compound 131] |  |  |  | 

SMILES | pH 2 solubility [2] [μM] | pH 7 solubility [3] [μM] | solubility [1, 4] [µg/mL] | solubility [1, 5] [µg/mL] | solubility (physchem; fassif) [µg/mL] | solubility (physchem; fessif) [µg/mL] | pH 2 solubility (pH 2) | pH 7 solubility (pH 7.4)
CC(C)(C#Cc1ccc(-c2ccc(Cl)c3c(N(C(=O)NCCP(=O)(O)O)S(C)(=O)=O)nn(CC(F)(F)F)c23)c([C@H](Cc2cc(F)cc(F)c2)NC(=O)Cn2nc(C(F)(F)F)c3c2C(F)(F)[C@@H]2C[C@H]32)n1)S(C)(=O)=O [Compound 54, (2-(3-(4-chloro-7-(2-((S)-1-(2-((3bS,4aR)-5,5-difluoro-3-(trifluoromethyl)-3b,4,4a,5-tetrahydro-1H-cyclopropa[3,4]cyclopenta[1,2-c]pyrazol-1-yl)acetamido)-2-(3,5-difluorophenyl)ethyl)-6-(3-methyl-3-(methylsulfonyl)but-1-yn-1-yl)pyridin-3-yl)-1-(2,2,2-trifluoroethyl)-1H-indazol-3-yl)-3-(methylsulfonyl)ureido)ethyl)phosphonic acid] | 1 | 41 |  |  | 416 (≈ 372 µM) |  |  | 
CN(CC(=O)OCOP(=O)(O)O)C(=O)N(c1nn(CC(F)(F)F)c2c(-c3ccc(C#CC(C)(C)S(C)(=O)=O)nc3[C@H](Cc3cc(F)cc(F)c3)NC(=O)Cn3nc(C(F)(F)F)c4c3C(F)(F)[C@@H]3C[C@H]43)ccc(Cl)c12)S(C)(=O)=O [Compound 84, (phosphonooxy)methyl N-((4-chloro-7-(2-((S)-1-(2-((3bS,4aR)-5,5-difluoro-3-(trifluoromethyl)-3b,4,4a,5-tetrahydro-1H-cyclopropa[3,4]cyclopenta[1,2-c]pyrazol-1-yl)acetamido)-2-(3,5-difluorophenyl)ethyl)-6-(3-methyl-3-(methylsulfonyl)but-1-yn-1-yl)pyridin-3-yl)-1-(2,2,2-trifluoroethyl)-1H-indazol-3-yl)(methylsulfonyl)carbamoyl)-N-methylglycinate] | 5 | 16 |  |  | 154 (≈ 129 µM) |  |  | 
C[C@@H](C(=O)O)N(CCOC(=O)N(c1nn(CC(F)(F)F)c2c(-c3ccc(C#CC(C)(C)S(C)(=O)=O)nc3[C@H](Cc3cc(F)cc(F)c3)NC(=O)Cn3nc(C(F)(F)F)c4c3C(F)(F)[C@@H]3C[C@H]43)ccc(Cl)c12)S(C)(=O)=O)C(=O)OCOP(=O)(O)O [Compound 132, N-(2-(((4-chloro-7-(2-((S)-1-(2-((3bS,4aR)-5,5-difluoro-3-(trifluoromethyl)-3b,4,4a,5-tetrahydro-1H-cyclopropa[3,4]cyclopenta[1,2-c]pyrazol-1-yl)acetamido)-2-(3,5-difluorophenyl)ethyl)-6-(3-methyl-3-(methylsulfonyl)but-1-yn-1-yl)pyridin-3-yl)-1-(2,2,2-trifluoroethyl)-1H-indazol-3-yl)(methylsulfonyl)carbamoyl)oxy)ethyl)-N-(((phosphonooxy)methoxy)carbonyl)-L-alanine] | 1 | 79 |  |  | 1630 (≈ 1270 µM) |  |  | 
CN(CCOC(=O)N(c1nn(CC(F)(F)F)c2c(-c3ccc(C#CC(C)(C)S(C)(=O)=O)nc3[C@H](Cc3cc(F)cc(F)c3)NC(=O)Cn3nc(C(F)(F)F)c4c3C(F)(F)[C@@H]3C[C@H]43)ccc(Cl)c12)S(C)(=O)=O)C(=O)OCOP(=O)(O)O [Compound 133, (phosphonooxy)methyl (2-(((4-chloro-7-(2-((S)-1-(2-((3bS,4aR)-5,5-difluoro-3-(trifluoromethyl)-3b,4,4a,5-tetrahydro-1H-cyclopropa[3,4]cyclopenta[1,2-c]pyrazol-1-yl)acetamido)-2-(3,5-difluorophenyl)ethyl)-6-(3-methyl-3-(methylsulfonyl)but-1-yn-1-yl)pyridin-3-yl)-1-(2,2,2-trifluoroethyl)-1H-indazol-3-yl)(methylsulfonyl)carbamoyl)oxy)ethyl)(methyl)carbamate] | 1 | 81 |  |  | 194 (≈ 159 µM) |  |  | 

Reference: patent publication US12404262B2 (priority 2021, dated 2025)
